US8410302B2, “Methoxyimino compounds and fungicide composition comprising same” (Kyung Nong Corporation, priority 2007, dated 2013)

Tests used:
[1] = tested on: Erysiphae graminis; assay: Fungicidal activity against barley powdery mildew (BPM) disease, control value; format: in vivo; conditions: 168 h, read-out: BPM control value (C.V.)
[2] = tested on: Pyricularia oryzae Carvara KA301; assay: whole plant or invertebrate; format: in vivo; conditions: Pyricularia oryzae, read-out: RCB control value (C.V.)
[3] = tested on: Phytophthora infestans; assay: whole plant or invertebrate; format: in vivo; conditions: Phytophthora infestans, in Solanum lycopersicum, read-out: TLB control value (C.V.)
[4] = tested on: Puccinia recondita; assay: Fungicidal activity against wheat leaf rust (WLR) disease, control value; format: in vivo; conditions: Puccinia recondita, read-out: WLR control value (C.V.)
[5] = tested on: Rhizoctonia solani AG-1; assay: Fungicidal activity against rice sheath blight (RSB) disease, control value; conditions: Rhizoctonia solani, AG1, in Oryza sativa, read-out: RSB control value (C.V.)
[6] = tested on: Botrytis cinerae; assay: Fungicidal activity against cucumber gray mold rot (CGM) disease, control value; format: in vivo; conditions: Botrytis; 100 ppm; read-out: CGM control value (C.V.)

Row | SMILES | pest or weed control at 2 ppm [1] | pest or weed control at 10 ppm [1] | pest or weed control at 50 ppm [1] | pest or weed control at 100 ppm [1] | pest or weed control at 2 ppm [2] | pest or weed control at 10 ppm [2] | pest or weed control at 50 ppm [2] | pest or weed control at 100 ppm [2] | pest or weed control at 10 ppm [3] | pest or weed control at 50 ppm [3] | pest or weed control at 100 ppm [3] | pest or weed control at 2 ppm [4] | pest or weed control at 10 ppm [4] | pest or weed control at 50 ppm [4] | pest or weed control at 100 ppm [4] | pest or weed control at 2 ppm [5] | pest or weed control at 10 ppm [5] | pest or weed control at 50 ppm [5] | pest or weed control at 100 ppm [5] | pest or weed control at 100 ppm [6] | further results
1 | CO/N=C(/C(=O)OC)c1ccccc1COc1ccc(C)cc1C=C(Br)Br [Example 69, methyl-(E)-2-(2-((2-(2,2-dibromovinyl)-4-methylphenoxy)methyl)phenyl)-2-methoxyiminoacetate] | 100% | 100% | 100% | 100% | 100% | 100% | 100% | 100% | 100% | 100% | 100% | 100% | 100% | 100% | 100% | 100% | 100% | 100% | 100% | 60% | pest or weed control at 2 ppm [3]: 100%
2 | CNC(=O)/C(=N/OC)c1ccccc1COc1ccc(C)cc1C=C(Br)Br [Example 70, (E)-2-(2-((2-(2,2-dibromovinyl)-4-methylphenoxy)methyl)phenyl)-2-methoxyimino-N-methylacetamide] | 100% | 100% | 100% | 100% | 100% | 100% | 100% | 100% | 35% | 90% | 100% | 100% | 100% | 100% | 100% | 100% | 100% | 100% | 100% | 50% | –
3 | CO/N=C(/C(=O)OC)c1ccccc1COc1cc(C=C(Br)Br)ccc1OC [Example 71, methyl-(E)-2-(2-((5-(2,2-dibromovinyl)-2-methoxyphenoxy)methyl)phenyl)-2-methoxyiminoacetate] | 95% | 100% | 100% | 100% | 30% | 90% | 100% | 100% | 90% | 98% | 100% | 95% | 100% | 100% | 100% | 65% | 98% | 100% | 100% | 65% | pest or weed control at 2 ppm [3]: 70%
4 | CNC(=O)/C(=N/OC)c1ccccc1COc1cc(C=C(Br)Br)ccc1OC [Example 72, (E)-2-(2-((5-(2,2-dibromovinyl)-2-methoxyphenoxy)methyl)phenyl)-2-methoxyimino-N-methylacetamide] | 98% | 100% | 100% | 100% | 80% | 99% | 100% | 100% | 90% | 100% | 100% | 97% | 100% | 100% | 100% | 75% | 98% | 100% | 100% | 79% | pest or weed control at 2 ppm [3]: 70%
